From patent US20250114456A1, “ENHANCED IMMUNOTHERAPEUTIC METHOD COMPRISING COMBINED ADMINISTRATION OF PHOTODYNAMIC / RADIOTHERAPEUTIC COMPOUNDS AND IMMUNOTHERAPEUTIC AGENTS” (Theralase Technologies, Inc., priority 2023, published 2025)

Tests used:
[1] = system: VISTA and PDL1/L2; conditions: multiple preclinical models; cited from earlier work
[2] = system: CD47 expression in A549 human Non-Small Cell Lung Cancer cells; assay: CD47 expression by flow cytometry, A549 cells, with or without radiation; format: cell-based; conditions: 4 hours, overnight incubation, FIG. 6
Method: A549 human Non-Small Cell Lung Cancer (“NSCLC”) cells were treated with RUVIDAR or RUTHERRIN for four (4) hours, then cells were treated with radiation or left untreated and then incubated further overnight before cell collection and analysis of CD47 expression by flow cytometry.

[3] = system: A549 human NSCLC cells; assay: ATP secretion quantification in supernatant, A549 cells, with radiation; format: cell-based; conditions: 4 hours, combined with radiation, supernatant 1 hour after, FIG. 8
Method: A549 human NSCLC cells were treated with RUVIDAR or RUTHERRIN for four (4) hours, then cells were treated with radiation or left untreated, and then incubated further for one (1) hour before collection of supernatant for ATP secretion quantification.

Compound	anti-tumor activity [1]	CD47 expression ([2]; radiation treatment added)	CD47 expression ([2]; without radiation treatment)	ATP release [3]
C[C@@H](O)[C@H](NC(=O)N[C@@H](CC(N)=O)c1nc([C@H](N)CO)no1)C(=O)O [CA-170]	demonstrated anti-tumor activity in multiple preclinical models	–	–	–
Cc1ccnc(-c2cc(C)ccn2)c1.Cc1ccnc(-c2cc(C)ccn2)c1.[Cl-].[Cl-].[Ru+2].c1csc(-c2ccc(-c3ccc(-c4nc5c6cccnc6c6ncccc6c5[nH]4)s3)s2)c1 [RUVIDAR, Ru(4,4′-dimethyl-2,2′-bipyridine)2(2-(2′,2″:5″,2′-terthiophene)-imidazo[4,5-f][1,10]phenanthroline) chloride]	–	significantly reduced expression	downregulated CD47 expression	significantly increased ATP release
